Source: patent publication US11612662B2, “Multi-arm polymeric prodrug conjugates of pemetrexed-based compounds” (priority 2010, dated 2023)

Legend:
in vivo = settings: for MTD at 10 days: female, SCID (HsdIcr:Ha (ICR)-Prkdc-scid), iv; for MTD at 10 days / Max. Mean Body Weight change during Rx (%): intravenously once each day for ten days; for Days of Deaths (s = surviving at study end): five mice listed singly; for Day of Max. Mean Body Weight Loss (body weight nadir) / % Rx Related Deaths: once each day for ten days
Method: The purpose of this study was to determine the maximum tolerated dose for pemetrexed (PMX), Compound 20a (from Example 1), Compound 20b (from Example 1), Compound 20c (from Example 1), and Compound 20d (from Example 1) in female SCID mice fed a low folate diet. All compounds were administered intravenously, once each day, for ten consecutive days.
Calculations were made to provide “dose equivalents” between PMX, Compound 20a, Compound 20b, Compound 20c and Compound 20d, which “dose equivalents” along with the “actual dose” administered are provided in Table 2. All dosagese in this example are expressed in terms of “dose equivalents” and adjustments were made for excipients, salts and hydration state.
Female SCID mice (HsdIcr:Ha (ICR)-Prkdc-scid) were obtained from Harlan. They were seven weeks old on Day 1 of the experiment. The mice in Groups 1 and 2 were fed irradiated Rodent Diet 5053 (LabDiet™). The mice in Groups 3 through 19 were fed irradiated Folic Acid Deficient Purina TestDiet supplemented with 1% succinylsufathiazol from 14 days prior to dosing until 14 days after dosing was completed, at which time the study was terminated and the mice were then euthanized. All groups received drinking water ad libitum. Mice were housed in static cages in clean rooms that provide H.E.P.A filtered air into the environment at 100 complete air changes per hour. All treatments, body weight determinations, and tumor measurements were carried out in the environment. The environment was controlled to a temperature range of 70°±2° F. and a humidity range of 30-70%. […] Mice found in obvious distress or in a moribund condition were euthanized. The study was carried out in an AAALAC accredited facility.
Treatments began on Day 1. […] Mice in Groups 3 through 19 were fed irradiated Folic Acid Deficient Purina TestDiet with 1% Succinylsufathiazol for 14 days prior to dosing as well as throughout the entire experiment. All mice were dosed according to individual body weight on the day of treatment (0.2 ml/20 g).
Mice were weighed on each day of treatment and at least three times weekly thereafter. Individual body weights were recorded three times weekly. […] In this report, a dosage level is described as tolerated if treatment-related weight loss (during and two weeks after treatment) is <20%. Upon death or euthanasia, all mice were necropsied to provide a general assessment of potential cause of death and perhaps target organs for toxicity.

[1] = Single dose maximum tolerated dose study; type: in vivo, mice; settings: single intravenous dose
Method: Because of too much efficacy of daily dosing for ten days in a pilot xenograft study (likely due to the effects of repeated dosing), a single dose maximum tolerated dose study was conducted using a method similar to that provided in Example 3 in order to have a better dosing schedule for a comparative xenograft study.

xenograft = assay: In vivo xenograft study; design: species or system female athymic nu/nu mice; settings: as of day 26; intravenously, at 80% and at 50% of the single dose maximum tolerated dose
Method: Briefly, for run of the experiment, a previously untreated group of 8-12 week old mice was intravenously administered a test article prepared in saline and diluted to appropriate concentrations to allow administration volumes of a maximum of 20 mL/kg. Each compound of interest was tested twice: once at 80% of the maximum tolerated dose and once at 50% of the maximum tolerated (maximum tolerated doses calculated on the single dose maximum tolerated dose study).
Mice were observed daily for clinical signs and body weights were recorded daily (except on weekend days) then biweekly until the end of study. Dosing was terminated for any group in which mean weight loss exceeded 20% or >10% of animals died. Moribund animals were euthanized.

[2] = in vivo; cited from earlier work
[3] = low folate diet, 1 mg/kg/inj dose equivalents
[4] = low folate diet, 1 mg/kg, tolerated if treatment-related weight loss <20%
[5] = low folate diet, 3.75 mg/kg/inj dose equivalents
[6] = low folate diet, 3.75 mg/kg, tolerated if treatment-related weight loss <20%
[7] = low folate diet, 15 mg/kg, tolerated if treatment-related weight loss <20%
[8] = low folate diet, dosage levels found tolerated
[9] = low folate diet, dosage levels found toxic
[10] = low folate diet, 15 mg/kg/inj dose equivalents
[11] = low folate diet, 60 mg/kg/inj dose equivalents

## Nc1nc2[nH]cc(CCc3ccc(C(=O)N[C@@H](CCC(=O)O)C(=O)O)cc3)c2c(=O)[nH]1 [Pemetrexed, pemetrexed]
In vivo; mouse, in vivo, MTD (maximum tolerated dose), mice fed a folate deficient diet, dose equivalents
  MTD at 10 days: 1 mg/kg
In vivo; mouse, in vivo, maximum tolerated dose, mice fed a conventional diet
  MTD at 10 days: < 250 mg/kg
In vivo; low folate diet, 1 mg/kg
  maximum treatment-related body weight loss: 12.8%
In vivo; [3]
  Days of Deaths (s = surviving at study end): s, s, s, s, s
  Max. Mean Body Weight change during Rx (%): −12.8%
  Day of Max. Mean Body Weight Loss (body weight nadir): 12
In vivo; [4]
  tolerability of the dosage level: tolerated
In vivo; [5]
  Days of Deaths (s = surviving at study end): s, s, s, s, s
  Max. Mean Body Weight change during Rx (%): −30.7%
  % Rx Related Deaths: 0%
  Day of Max. Mean Body Weight Loss (body weight nadir): 12
In vivo; [6]
  tolerability of the dosage level: toxic
In vivo; [7]
  tolerability of the dosage level: toxic
In vivo; low folate diet, 60 mg/kg, tolerated if treatment-related weight loss <20%
  tolerability of the dosage level: toxic
In vivo; low folate diet, across 60, 15 and 3.75 mg/kg
  body weight nadir (Day): 10-12
In vivo; [8]
  common clinical signs: rough pelage
  necropsy findings: nothing significant
In vivo; [9]
  common clinical signs: rough pelage and diarrhea
  necropsy findings: bloated, air-filled stomachs, pale livers, and necrotic intestines
In vivo; [10]
  Max. Mean Body Weight change during Rx (%): −38.4%
  % Rx Related Deaths: 40%
  Day of Max. Mean Body Weight Loss (body weight nadir): 10
In vivo; [11]
  Max. Mean Body Weight change during Rx (%): −38.1%
  % Rx Related Deaths: 100%
  Day of Max. Mean Body Weight Loss (body weight nadir): 10
In vivo; low folate diet, 1 mg/kg/inj dose equivalents, 1 mg/kg
  % Rx Related Deaths: 0%
In vivo; low folate diet, 1 mg/kg/inj dose equivalents, listed as PMX, 1 mg/kg
  % Rx Related Deaths: no treatment-related mortality
In vivo; mouse, in vivo
  tolerability of the dosage level: toxic
In vivo; normal diet, 500 mg/kg
  Lethality: 100%
[1]; mouse, in vivo, dose equivalents
  MTD: 50 mg/kg
[1]; tested dose (equiv) 50
  BWL (body weight loss): −9.7%
  day (of body weight loss): 2
  treatment-related deaths: 0
[1]; tested dose (equiv) 80
  BWL (body weight loss): −3.8%
  day (of body weight loss): 2
  treatment-related deaths: 0
[1]; tested dose (equiv) 120
  BWL (body weight loss): −4.1%
  day (of body weight loss): 2
  treatment-related deaths: 0
xenograft
  tumor volume compared with saline control: significantly less tumor volume than saline control
[2]
  drug excreted unchanged in the urine: 70-90%
  half-life: 3.5 h

## 4-arm-PEG30k-γ-amide-Pemetrexed Conjugate [Compound 20c]
In vivo; low folate diet, 1 mg/kg
  maximum treatment-related body weight loss: 4.8%
  time to recover lost body weight: 5.5 days
In vivo; [3]
  Days of Deaths (s = surviving at study end): s, s, s, s, s
  Max. Mean Body Weight change during Rx (%): −4.8%
  % Rx Related Deaths: 0%
  Day of Max. Mean Body Weight Loss (body weight nadir): 10
In vivo; [4]
  tolerability of the dosage level: tolerated
In vivo; low folate diet, 3.75 mg/kg
  maximum treatment-related body weight loss: 1.4%
  time to recover lost body weight: 2.2 days
In vivo; [5]
  Days of Deaths (s = surviving at study end): s, s, s, s, s
  Max. Mean Body Weight change during Rx (%): −1.4%
  % Rx Related Deaths: 0%
  Day of Max. Mean Body Weight Loss (body weight nadir): 5
In vivo; [6]
  tolerability of the dosage level: tolerated
In vivo; low folate diet, 15 mg/kg
  maximum treatment-related body weight loss: 18.8%
  time to recover lost body weight: not recovered prior to study termination
In vivo; [7]
  tolerability of the dosage level: toxic
In vivo; [8]
  common clinical signs: Rough pelage
  necropsy findings: no significant findings
In vivo; [9]
  necropsy findings: Necrotic intestines
In vivo; [10]
  Max. Mean Body Weight change during Rx (%): −22.0%
  % Rx Related Deaths: 20%
In vivo; low folate diet, 15 mg/kg/inj dose equivalents, 15 mg/kg
  Day of Max. Mean Body Weight Loss (body weight nadir): 19
[1]; dose equivalents
  Single dose MTD: <40
[1]; tested dose (equiv) 40
  BWL (body weight loss): −19.6%
  day (of body weight loss): 9
  mean day of death: 12
  treatment-related deaths: 5
[1]; tested dose (equiv) 70
  BWL (body weight loss): −25.0%
  day (of body weight loss): 9
  mean day of death: 10.5
  treatment-related deaths: 2
[1]; tested dose (equiv) 95
  BWL (body weight loss): −27.1%
  day (of body weight loss): 7
  mean day of death: 9
  treatment-related deaths: 3
[1]; tested dose (equiv) 125
  BWL (body weight loss): −25.3%
  day (of body weight loss): 9
  mean day of death: 10.5
  treatment-related deaths: 2
xenograft
  tumor volume compared with saline control: significantly less tumor volume than saline control
  tumor volume compared with the other articles tested: lowest tumor volumes of all articles tested
